Values quoted from earlier work in patent US20260015669A1, “COMPOSITIONS AND METHODS FOR DETECTING AND TREATING TUMORS AND/OR CANCERS ASSOCIATED WITH BRAF AND/OR MAP2K1 VARIANTS” (North Carolina State University, priority 2022, published 2026).

Assays:
ΔNVTAP mutants [1] = details: human cancer cell lines; RAF dimer inhibitors target the αC-in/DFG-out conformation
ΔNVTAP mutants [2] = molecular target: ΔNVTAP mutants (Homo sapiens, UniProt P15056, DEL486-490); details: human cancer cell lines; in contrast to V600E mutants; inhibitors target the αC-out/DFG-in conformation
Sequence of ΔNVTAP mutants (Homo sapiens, UniProt P15056, DEL486-490) (P15056 with tags, fused parts or gaps DEL486-490): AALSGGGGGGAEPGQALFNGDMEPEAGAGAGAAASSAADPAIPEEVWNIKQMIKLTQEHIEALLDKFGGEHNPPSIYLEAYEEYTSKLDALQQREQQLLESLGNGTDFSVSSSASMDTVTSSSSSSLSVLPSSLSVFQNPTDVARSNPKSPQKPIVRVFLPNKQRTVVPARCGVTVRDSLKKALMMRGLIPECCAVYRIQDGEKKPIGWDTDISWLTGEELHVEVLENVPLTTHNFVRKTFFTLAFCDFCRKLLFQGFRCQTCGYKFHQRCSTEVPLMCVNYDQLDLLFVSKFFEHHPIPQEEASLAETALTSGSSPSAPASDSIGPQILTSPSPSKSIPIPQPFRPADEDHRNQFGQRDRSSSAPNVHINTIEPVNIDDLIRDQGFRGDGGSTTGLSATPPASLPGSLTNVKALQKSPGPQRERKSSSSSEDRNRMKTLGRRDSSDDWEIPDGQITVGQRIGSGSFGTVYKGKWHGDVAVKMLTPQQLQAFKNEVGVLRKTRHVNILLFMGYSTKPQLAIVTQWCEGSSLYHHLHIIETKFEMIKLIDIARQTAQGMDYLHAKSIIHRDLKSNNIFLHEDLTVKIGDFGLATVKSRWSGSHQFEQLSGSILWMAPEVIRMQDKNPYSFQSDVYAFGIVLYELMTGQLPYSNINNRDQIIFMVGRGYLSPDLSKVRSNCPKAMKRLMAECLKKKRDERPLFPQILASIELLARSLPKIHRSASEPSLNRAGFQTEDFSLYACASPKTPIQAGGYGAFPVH

Row | response of ΔNVTAP mutants to BRAF monomer inhibitors (ΔNVTAP mutants [2]) | Structure (SMILES) | response of mutants with exon 12 in-frame deletions to pan-RAF dimer inhibitors and allosteric MEK inhibitors (ΔNVTAP mutants [1])
1 | – | Cc1ccc(NC(=O)c2cccc(C(C)(C)C#N)c2)cc1Nc1ccc2ncn(C)c(=O)c2c1 [AZ628] | susceptible
2 | – | CNc1ncc2cc(-c3cc(NC(=O)NCCC(C)(C)C)c(F)cc3C)c(C)nc2n1 [LY3009120] | susceptible
3 | resistant | CC(C)(C)c1nc(-c2cccc(NS(=O)(=O)c3c(F)cccc3F)c2F)c(-c2ccnc(N)n2)s1 [dabrafenib] | –
4 | – | O=C(c1ccc(F)c(F)c1Nc1ccc(I)cc1F)N1CC(O)([C@@H]2CCCCN2)C1 [cobimetinib] | susceptible
